One data set deals with T1, MMP-2 (Homo sapiens, UniProt P08253).
T1 sequence (P08253 110-660): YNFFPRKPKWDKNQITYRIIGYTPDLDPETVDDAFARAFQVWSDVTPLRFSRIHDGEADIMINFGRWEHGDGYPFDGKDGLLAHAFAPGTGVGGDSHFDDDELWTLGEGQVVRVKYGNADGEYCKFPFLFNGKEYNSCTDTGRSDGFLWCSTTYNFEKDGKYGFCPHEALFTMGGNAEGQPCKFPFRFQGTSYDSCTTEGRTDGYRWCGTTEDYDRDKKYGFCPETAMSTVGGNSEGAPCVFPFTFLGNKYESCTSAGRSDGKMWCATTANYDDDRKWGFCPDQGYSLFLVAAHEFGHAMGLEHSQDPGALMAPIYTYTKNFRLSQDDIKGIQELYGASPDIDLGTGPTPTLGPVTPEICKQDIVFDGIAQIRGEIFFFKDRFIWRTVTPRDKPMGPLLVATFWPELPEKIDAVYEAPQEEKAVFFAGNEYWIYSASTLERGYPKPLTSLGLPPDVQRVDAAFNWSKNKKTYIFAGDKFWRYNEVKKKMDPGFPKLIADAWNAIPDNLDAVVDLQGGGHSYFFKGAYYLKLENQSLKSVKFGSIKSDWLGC
The conditions noted are these: preclinical studies; cited from earlier work.

A further data set concerns the target MMP-9 (Homo sapiens, UniProt P14780). The conditions noted are these: preclinical studies; cited from earlier work.
The next data set has as its target T2, MT1-MMP (Mus musculus, UniProt P53690).
T2 construct: Endogenous MT1-MMP is latent in non-adherent IS-CD8^+ cells; endogenous in cells; host or cells: IS-CD8+ T cells (TGNFC8 clone, NOD mouse), adherent to gelatin
As to the kind of experiment: MT1-MMP-dependent MMP-2 activation in adherent IS-CD8+ cells, gelatin zymography. It is filed as cell-based, NOD mouse. Further details: inhibition of MMP-2 activation: dose or concentration left out as unconfirmed. The method, then: MT1-MMP-dependent MMP-2 Activation and Gelatin Zymography—IS-CD8^+ cells (1×10^6) were either allowed to adhere for 4 h in serum-free unsupplemented Click's medium to plastic coated with 2% gelatin or kept in solution. Under these experimental conditions, the vast majority of cells became attached to gelatin. In 4 h, media samples (30 μl each) were withdrawn and analyzed by gelatin zymography (Deryugina, E. I., et al. (2001)) to identify the proteolytic activity and the activation status of MMP-2 naturally synthesized by IS-CD8^+ cells. Where indicated, cells were supplemented with external purified pro-MMP-2 (20 ng). Pro-MMP-2 was isolated from a conditioned medium of p2AHT2A72 cells derived from an HT1080 fibrosarcoma cell line sequentially transfected with the E1A and MMP-2 cDNAs (Strongin, A. Y., et al. (1995)).
MT1-MMP-dependent MMP-2 activation and gelatin zymography—IS-CD8^+ cells (1×10^6) were either allowed to adhere for 4 h in serum-free unsupplemented Click's medium to the plastic coated with 2% gelatin or kept in solution. In 18 h, media samples (30 μl each) were withdrawn and analyzed by gelatin zymography (Deryugina, E. I., et al. (2001)) to identify the proteolytic activity and the activation status of MMP-2 naturally synthesized by IS-CD8^+ cells. […] Pro-MMP-2 was isolated from a conditioned medium of p2AHT2A72 cells derived from an HT1080 fibrosarcoma cell line sequentially transfected with the E1A and MMP-2 cDNAs (Strongin, A. Y., et al. (1995)).

The test system of data set [1] is CD44 shedding in IS-CD8+ cells. The experiment in a line: CD44 shedding in adherent IS-CD8+ cells, Western blotting. It counts as cell-based, NOD mouse. The method, then:
Western Blotting—IS-CD8^+ cells were surface biotinylated for 1 h at 4° C. with 0.1 mg/ml sulfo-NHS-LC-biotin (Pierce, Rockford, Ill.). Following washes to remove biotin, cells were co-incubated for 2 h with MT1-MMP-CAT in serum-free, unsupplemented Click's medium. The cells were then lysed with 50 mM N-octyl-β-D-glucopyranoside in phosphate-buffered saline supplemented with 1 mM CaCl2, 1 mM MgCl2, and protease inhibitor mixture containing phenylmethylsulfonyl fluoride (1 mM) and aprotinin, pepstatin, and leupeptin (1 μg/ml each). Biotin-labeled CD44 was captured from the cell lysate and from the medium aliquots on streptavidin-agarose beads. The captured samples were examined by Western blotting with the CD44 (clone IM7.8.1) antibody to determine the released, soluble, CD44 ectodomain in the medium samples and the residual, membrane-anchored, cellular CD44 in the cell lysates.
Western blotting—IS-CD8^+ cells were surface biotinylated for 1 hr at 4° C. with 0.1 mg/ml of sulfo-NES-LC-biotin (Pierce). Following washes to remove biotin, the labeled cells were allowed to adhere in serum-free medium to plastic coated with 2% type I collagen/gelatin for 4 h or were kept in suspension. Under these experimental conditions, the vast majority of the cells became attached to gelatin. […] The cells were then lysed with 50 mM N-octyl-β-D-glucopyranoside in PBS supplemented with 1 mM CaCl2, 1 mM MgCl2, and protease inhibitor cocktail containing phenylmethylsulfonyl fluoride (1 mM) and aprotinin, pepstatin, and leupeptin (1 μg/ml each). Biotin-labeled CD44 was captured from the cell lysate and from the medium aliquots on streptavidine-Agarose beads. The captured samples were examined by Western blotting with the CD44 (clone IM7.8.1) antibody to determine the released, soluble, CD44 ectodomain in the medium samples and the residual, membrane-anchored, cellular CD44 in the cell lysates.
(In general: Immunoblotting shows a protein as a band on a membrane.)

For data set [2] the following is noted: human TIMP proteins; cited from earlier work.
Another data set deals with IS-CD8+ T cells. As to the kind of experiment: Homing of DiI-labeled IS-CD8+ T cells into the pancreatic islets of NOD mice. It is filed as in vivo. The following applies: Example 3: inhibitor i.p. before cells; 24 h; SB-3CT and EGCG at much higher concentrations than AG3340. The method, then:
Fluorescent Tracing and Morphometric Analysis—For trafficking studies, IS-CD8^+ T cells were incubated at 1×10^7 cells/ml for 30 min at 37° C. in the dark in complete Click's medium containing 5% fetal calf serum and 0.0075 mg/ml of the fluorescent dye 1,1′-didodecyl-3,3,3′,3′-tetramethylindocarbocyanine perchlorate (DiI; Molecular Probes, Eugene, Oreg.). After incubation, the cells were washed three times with phosphatebuffered saline to remove excess DiI. Labeled IS-CD8^+ cells (1×10^7 cells) were injected intravenously in 0.2 ml of phosphate-buffered saline into irradiated (725 rads, 24 h in advance) NOD mice. Mice were sacrificed 24 h after injection of DiI-labeled cells. The spleen and the pancreata were excised and fixed in 0.1 M periodate-lysine-paraformaldehyde phosphate buffer. The organs were next sucrose-saturated, freeze-molded in OCT compound (Sakura Finetek Inc., Torrance, Calif.), and freeze-sectioned. 7-μm-thick cryostat sections of the entire pancreas were prepared at 60-μm intervals using a Leica CM1900 cryotom. Distribution of DiI-labeled CD8^+ cells within the islets was examined using a fluorescent microscope. At least 100 individual islets per mouse (4-5 mice/experimental group) were examined. The characteristic morphology of the islets is easily identified on the cryosections. DiI-labeled cells were counted within the area relevant to each individual islet (see FIG. 3 for a representative image; the islet-relevant area is depicted by the solid white line, and the islet boundaries are shown by the white dotted line). The position of each IS-CD8^+ labeled cell was determined relative to the islet boundary. The labeled cells localized within the islet boundary were considered to be “inside,” whereas the labeled cells adjacent to the islet but outside of the islet boundary were considered to be “at the entrance.” This method has been described in substantial detail (Savinov, A. Y., et al. (2003), and Savinov, A. Y., et al. (2001), which are herein incorporated by reference in their entirety for their teaching of these methods).
Fluorescent tracing and morphometric analysis—For trafficking studies, IS-CD8^+ T cells were incubated at 1×10^7 cells/ml for 30 min at 37° C. in the dark in the complete Click's medium containing 5% FCS and 0.0075 mg/ml of fluorescent dye 1,1′-didodecyl-3,3,3′,3′-tetramethylindocarbocyanine perchlorate (DiI; Molecular Probes). After incubation, the cells were washed three times with PBS to remove excess DiI. Labeled IS-CD8^+ cells (1×10^7 cells) were intravenously injected in 0.2 ml of PBS into irradiated (725 Rad, 24 h in advance) NOD mice. Mice were sacrificed 24 h after injection of DiI-labeled cells. […] In 24 h, the spleen and the pancreata were excised and fixed in 0.1 M periodate-lysine-paraformaldehyde phosphate buffer. The organs were next sucrose-saturated, freeze-molded in OCT compound (Sakura Finetek Inc.) and freeze-sectioned. 7-μm-thick cryostat sections of the entire pancreas were prepared at the 60 μm intervals using a Leica CM1900 cryotom. Distribution of DiI-labeled CD8^+ cells within the islets was examined using a fluorescent microscope. At least 100 individual islets per mouse, 4-5 mice per each experimental group, were examined. The characteristic morphology of the islets is easily identified on the cryosections. DiI-labeled cells were counted within the area relevant to each individual islet. The position of each IS-CD8^+ labeled cell was determined relative to the islet boundary. […]

Another data set concerns NOD mice. As to the kind of experiment: Adoptively transferred diabetes in NOD mice (IS-CD8+ cells). The following applies: Example 3: i.p. 30 min prior to cells, then every other day; inhibitor diluted to 4 mg/ml. It is filed as in vivo. The method, then: IS-CD8^+ cells were labeled with DiI and then injected in NOD mice. In 24 h, the labeled cells with their intra-islet location were counted in the cryostat sections of the entire pancreas. […] IS-CD8^+ cells were injected in NOD mice. […] PBS containing […] DMSO was used as a vehicle control. The onset of diabetes was monitored daily by measuring urine glucose levels with the Diastix reagent strips. Mice with urine glucose levels of ≧2000 mg/dl for 3 consecutive days were considered diabetic. * and **, p=0.02 and p=0.015 by Fisher's test, respectively.
Mice were monitored for 21 days. […] The onset of diabetes was identified by assessing urine glucose levels with Diastix® strips (Bayer). Mice with urine glucose levels of >2000 mg/dl for 3 consecutive days were considered diabetic. […] The level of glucose in the urine closely follows that in the blood (Traisman, H. S., and Greenwood, R. D. (1973)). The measurement of glucose in urine is a widely accepted method to follow the development of diabetes in NOD mice (Pomerleau, D. P., et al. (2005)).

For data set [3] the following is noted: cited from earlier work.

The values below come from patent US20070203244A1, “INHIBITORS OF MEMBRANE TYPE-1 MATRIX METALLOPROTEINASE FOR THE TREATMENT OF INSULIN-DEPENDENT DIABETES MELLITUS” (priority 2006, published 2007).

MMP-9, sequence (P14780 94-707, species assumed): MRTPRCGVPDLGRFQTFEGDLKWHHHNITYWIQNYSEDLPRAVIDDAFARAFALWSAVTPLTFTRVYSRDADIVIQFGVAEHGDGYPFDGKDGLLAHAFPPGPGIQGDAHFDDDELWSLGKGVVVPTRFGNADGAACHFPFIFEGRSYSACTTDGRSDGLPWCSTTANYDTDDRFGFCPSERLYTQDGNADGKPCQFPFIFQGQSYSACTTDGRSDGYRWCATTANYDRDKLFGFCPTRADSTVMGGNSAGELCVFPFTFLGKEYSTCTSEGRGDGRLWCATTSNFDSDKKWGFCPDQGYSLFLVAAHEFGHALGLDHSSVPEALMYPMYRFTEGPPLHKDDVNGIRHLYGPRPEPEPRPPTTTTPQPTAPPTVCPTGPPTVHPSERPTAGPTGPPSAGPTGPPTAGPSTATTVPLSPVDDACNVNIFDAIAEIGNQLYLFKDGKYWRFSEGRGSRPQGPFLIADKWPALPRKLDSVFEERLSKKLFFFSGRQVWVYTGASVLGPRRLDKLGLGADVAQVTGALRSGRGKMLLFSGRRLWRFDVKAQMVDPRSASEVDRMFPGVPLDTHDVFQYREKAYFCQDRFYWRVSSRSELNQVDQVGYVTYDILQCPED

As to `CNC(=O)[C@@H](NC(=O)[C@H](CC(C)C)NC(=O)[C@@H](S)CCN1C(=O)N(C)C(C)(C)C1=O)C(C)(C)C` [BMS-275291], the “inhibitory activity against MMP-2” value at MMP-2 is listed as “potent inhibitory activity”. In addition, the “inhibitory activity against MMP-9” value at MMP-9 is “potent inhibitory activity”.

For the molecule “TIMP-1: native tissue inhibitor of MMP; a poor inhibitor of MT1-MMP”, the “activation of MMP-2 in adherent cells” value in the data set with MT1-MMP (Example 2: AG3340 50 μM, TIMP-1 and TIMP-2 100 ng/ml, 18 h) was “no effect”. Also, the “shedding of CD44 in adherent cells” value in data set [1] (Example 2: AG3340 50 μM, TIMP-1 and TIMP-2 100 ng/ml) is given as “minor but noticeable inhibition”. Besides, the isoelectric point in data set [2] was 8.00.

`O=C(O[C@@H]1Cc2c(O)cc(O)cc2O[C@@H]1c1cc(O)c(O)c(O)c1)c1cc(O)c(O)c(O)c1` [EGCG, (−)-epigallocatechin 3-gallate]: the “inhibition of MMP-2 activation” value against MT1-MMP (Example 3: EGCG) was “partial inhibition”. Further, in data set [1] (Example 3: EGCG 500 mM), the “effect on CD44 proteolysis” value is on record as “without any significant effect”. For the same molecule, the “homing of IS-CD8+ cells inside the islets” value in the data set on IS-CD8+ T cells is recorded as “did not affect”. Moreover, in the data set with NOD mice, the “delay of the transferred diabetes onset” value is on record as “no delay”.

On to `O=S(=O)(CC1CS1)c1ccc(Oc2ccccc2)cc1` (stereo not drawn) [SB-3CT], for which the “activation of MMP-2 in adherent cells” value at MT1-MMP (Example 3: inhibitors added for 18 h) is “no effect”. Moreover, the “shedding of CD44 in adherent cells” value in data set [1] (Example 3) is on record as “no effect”. Besides, the “homing of IS-CD8+ cells inside the islets” value in the data set on IS-CD8+ T cells was “did not affect”. Besides, the “delay of the transferred diabetes onset” value in the data set on NOD mice is given as “no delay”.

As to `COc1ccc(S(=O)(=O)N(Cc2cccnc2)[C@@H](C(=O)NO)C(C)C)cc1` [CGS-27023A], in data set [3] (clinically tolerable doses), the “plasma concentrations relative to in vitro IC50s for MMP-2,-3 and -9” value is “severalfold greater”; the “time for which plasma concentrations above the in vitro IC50s for MMP-2,-3 and -9 were sustained after dosing” value was greater than 10 h. Moreover, the “dose at which major toxic effects (cutaneous and musculoskeletal toxicity) were encountered” value in data set [3] (oral, continuous dosing, 150 to 600 mg in divided doses) is reported as “exceeding 300 mg twice a day”.

B1: TIMP-4: native tissue inhibitor of MMP, 22 kDa, SEQ ID NO:6 (protein, UniProt Q99727 30-224, looked up)
Metalloproteinase inhibitor 4: CSCAPAHPQQHICHSALVIRAKISSEKVVPASADPADTEKMLRYEIKQIKMFKGFEKVKDVQYIYTPFDSSLCGVKLEANSQKQYLLTGQVLSDGKVFIHLCNYIEPWEDLSLVQRESLNHHYHLNCGCQITTCYTVPCTISAPNECLWTDWLLERKLYGYQAQHYVCMKHVDGTCSWYRGHLPLRKEFVDIVQP
As to B1, the isoelectric point in data set [2] was 7.34.

B2: TIMP-3: native tissue inhibitor of MMP, SEQ ID NO:4 (protein)
chain: MTPWLGLIVLLGSWSLGDWGAEACTCSPSHPQDAFCNSDIVIRAKVVGKKLVKEGPFGTLVYTIKQMKMYRGFTKMPHVQYIHTEASESLCGLKLEVNKYQYLLTGRVYDGKMYTGLCNFVERWDQLTLSQRKGLNYRYHLGCNCKIKSCYYLPCFVTSKNECLWTDMLSNFGYPGYQSKHYACIRQKGGYCSWYRGWAPPDKSIINATDP
Take B2: in data set [2], the isoelectric point was 9.04.
